The text below walks through data of ChEMBL document CHEMBL2406956, “Discovery and optimisation of 1-hydroxyimino-3,3-diphenylpropanes, a new class of orally active GPBAR1 (TGR5) agonists” (Bioorg Med Chem Lett, 2013).

The nature of data set [1]: 1-octanol-aqueous buffer distribution coefficient, log D of the compound at 0.5 mM at pH 7.4 after 2 hrs by shake flask method. In kind it is physicochemical.
Data set [2] can be described thus: Oral bioavailability in C57Bl/6 DIO mouse at 30 mg/kg. In kind it is ADME, organism-based. The following applies: in vivo.
Data set [3] in a line: Cmax in C57Bl/6 DIO mouse at 30 mg/kg, po. It counts as ADME, organism-based. On the set-up: dose 30 mg/kg, route oral. Conditions: in vivo.
Data set [4] can be described thus: Half life in C57Bl/6 DIO mouse at 1 mg/kg, iv. Also on record: dose 1 mg/kg, route intravenous. The following applies: in vivo. It counts as ADME, organism-based.
Data set [5] is described as follows: Volume of distribution at steady state in C57Bl/6 DIO mouse at 1 mg/kg, iv. The following applies: in vivo, read-out: Vdss. On the set-up: dose 1 mg/kg, route intravenous. It counts as ADME, organism-based.
Data set [6] can be described thus: Clearance in C57Bl/6 DIO mouse at 1 mg/kg, iv. In kind it is ADME, organism-based. Also on record: dose 1 mg/kg, route intravenous. Conditions: in vivo.
Data set [7] is described as follows: Oral bioavailability in C57Bl/6 DIO mouse at 49 mg/kg. It counts as ADME, organism-based. Conditions: in vivo.
The nature of data set [8]: Cmax in C57Bl/6 DIO mouse at 22 mg/kg, po. It counts as ADME, organism-based. Also on record: dose 22 mg/kg, route oral. The following applies: in vivo.
Data set [9] in a line: Oral bioavailability in C57Bl/6 DIO mouse at 22 mg/kg. It counts as ADME, organism-based. Conditions: in vivo.
Data set [10] is described as follows: Stability of the compound in aqueous solution assessed as recovery at pH 1 to 10 after 2 hrs. In kind it is physicochemical. The following applies: read-out: Drug recovery.
Data set [11] is described as follows: Oral bioavailability in C57Bl/6 DIO mouse at 23 mg/kg. Conditions: in vivo. In kind it is ADME, organism-based.
The next data set concerns Plasma. Put plainly: Plasma concentration in C57Bl/6 DIO mouse at 50 to 100 mg/kg, po. It counts as ADME, organism-based. The following applies: in vivo. On the set-up: dose 50-100 mg/kg, route oral.

A value given as a limit tells only on which side of the number the result lay.

By logD is commonly meant the decadic logarithm of the distribution of all forms, ionised or not, between an organic phase and buffer at a given pH. In [1], `Cc1cc(/C(C[C@@H](c2ccc(-c3ccc(C(=O)O)cc3)cc2)c2ccccc2C)=N/O)ccn1` registered a pH-dependent lipophilicity (logD) at 2 h, 500 µM of 2.7.
One may read the bioavailability as dose-corrected exposure relative to a reference, in per cent. Higher therefore signals good availability. For orientation: Cmax means the highest concentration seen after dosing. What is called half-life is how long it takes for the measured level to halve. High values mean slow loss, low ones fast loss. One may read the clearance as the rate of elimination divided by the concentration. A low value points to a low capacity for elimination. Consider `Cc1cc(/C(C[C@H](c2ccc(N3CCC(C(=O)O)CC3)cc2)c2ccccc2C)=N/O)ccn1`, for which the bioavailability in data set [2] was 100%. This compound also displayed a Cmax in [3] of 41 µg/mL. Moreover, the half-life in data set [4] is 1.7 h. Moreover, the Vd in [5] came to 0.4 L/kg. Besides, the logD at 2 h, 500 µM in data set [1] came to 1.5. Besides, the clearance in data set [6] came out at 0.3 L/h/kg.
As for `Cc1cc(/C(C[C@@H](c2ccc(N3CCC(C(=O)O)CC3)cc2)c2ccccc2C)=N/O)ccn1`, in [1], the logD at 2 h, 500 µM is 1.6.
`Cc1ccccc1[C@H](C/C(=N\O)c1ccc(=O)n(C)c1)c1ccc(-c2ccc(C(=O)O)cc2)cc1` gave a half-life in data set [4] of 0.7 h. The Vd in data set [5] worked out at 0.5 L/kg. In data set [7], the bioavailability came out at 67%. Besides, the logD at 2 h, 500 µM in data set [1] turned out to be 1.3. For the same compound, the clearance in [6] came to 0.3 L/h/kg.
The compound `Cc1ccccc1[C@@H](C/C(=N\O)c1ccc(=O)n(C)c1)c1ccc(-c2ccc(C(=O)O)cc2)cc1` registered a pH-dependent lipophilicity (logD) at 2 h, 500 µM in [1] of 1.5.
In the case of `Cc1ccccc1[C@H](C/C(=N\O)c1ccc(=O)n(C)c1)c1ccc(S(C)(=O)=O)cc1`, the concentration in data set [8] peaked (Cmax) at 0.87 µg/mL. Besides, in [9], the bioavailability worked out at 29%. This compound showed a half-life in data set [4] of 2.2 h. The Vd in data set [5] amounted to 3.3 L/kg. In data set [1], this compound returned a pH-dependent lipophilicity (logD) at 2 h, 500 µM of 1.7. Besides, in data set [6], the clearance worked out at 4.02 L/h/kg.
`Cc1ccccc1[C@@H](C/C(=N\O)c1ccc(=O)n(C)c1)c1ccc(S(C)(=O)=O)cc1` had a logD at 2 h, 500 µM in [1] of 1.9.
As to `CN(C)c1ccc(C(C/C(=N\O)c2ccncc2)c2ccccc2)cc1` (stereo not given), the remaining at 2 h in data set [10] is over 90%. Also, the logD at 2 h, 500 µM in data set [1] was 3.4.
In [1], `Cc1cc(/C(CC(c2ccc(Br)cc2)c2ccccc2C)=N/O)ccn1` (stereo not given) gave a logD at 2 h, 500 µM of over 4.
`Cc1cc(/C(C[C@H](c2ccc(-c3ccc(C(=O)O)cc3)cc2)c2ccccc2C)=N/O)ccn1` had a bioavailability in [11] of 80%. Also, the half-life in data set [4] was 0.3 h. Further, in [5], the Vd worked out at 0.5 L/kg. The same compound showed a log distribution coefficient (logD) at 2 h, 500 µM in [1] of 2.7. The same compound displayed a Cp in the data set on Plasma of 31.5 µg/mL. The compound further came in with a clearance in data set [6] of 0.9 L/h/kg.
